Literature values, collected in patent publication US8247435B2, “Formulations for treating human and animal diseases” (priority 2009, dated 2012).
Entries after “also recorded” stand apart in the source; their conditions may differ. Where two headings read alike, the source gives them in different places.

Key:
[1] = 300 mg/day, 4 months
[2] = highest dose 3000 mg/day
[3] = oral; MS patients on immunosuppressive or immunomodulatory therapies
[4] = system: Candida; conditions: 600 mg orally 3 times a day for 15 days
[5] = system: VEGF-dependent angiogenesis; conditions: VEGF-expressing CAMs
[6] = humans; not identified at doses used
[7] = system: normal bladder cells; conditions: normal physiological range of urine excretion (10 μg/ml)
[8] = system: human umbilical vein endothelial cells (HUVECs); conditions: 10 microM genistein
[9] = not given; remark: listed apart in the source
[10] = system: HTB-186 medulloblastoma cell line
[11] = system: Reuber H35 hepatoma cells; conditions: radiation in the presence of genistein; irradiation alone factor 20
[12] = system: cells in vitro
[13] = 500 mg/m^2/day
[14] = system: ocular neovasculation; conditions: primates, systemic, twice weekly
[15] = system: non-small cell lung cancer; conditions: with carboplatin and paclitaxel
[16] = system: non-small cell lung cancer
[17] = not given; remark: listed apart in the source
[18] = system: human vascular endothelial cells; conditions: doses as low as
[19] = system: rat 13762 mammary carcinoma; conditions: single agent, 40 mg/kg
[20] = system: Lewis lung carcinoma; conditions: mice, day 20
[21] = cancer patients, 145 patients
[22] = not given; remark: listed apart in the source

## O=C(O)CCCCC1CCSS1 (stereo not drawn) [ALA, alpha-lipoic acid]
[1]
  patients who were responders or high responders: 22 of the 39

## CC(=O)O[C@H](CC(=O)[O-])C[N+](C)(C)C [ALC, Acetyl-L-carnitine]
[2]
  side effects and toxicities: no toxicities were noted
[3]
  patients with decreased fatigue intensity: 63%

## COC1=C(OC)C(=O)C(C/C=C(\C)CC/C=C(\C)CC/C=C(\C)CC/C=C(\C)CC/C=C(\C)CC/C=C(\C)CC/C=C(\C)CC/C=C(\C)CC/C=C(\C)CCC=C(C)C)=C(C)C1=O [CoQ10, ubiquinone]
From 8% on initial visit
  prevalence of memory loss on most recent follow-up: 4%
From 10% on initial visit
  prevalence of peripheral neuropathy on most recent follow-up: 2%
From 58% on initial visit
  prevalence of dyspnea on most recent follow-up: 12%
From 64% on initial visit
  prevalence of myalgia on most recent follow-up: 6%
From 84% on initial visit, average 240 mg/day, statin discontinued
  prevalence of fatigue on most recent follow-up: 16%

## CC(=O)N[C@@H](CS)C(=O)O [NAC, N-Acetyl Cysteine]
[4]
  antifungal activity of peripheral blood monocytes (PBM): significantly enhanced
[5]
  total vessel number relative to VEGF controls: nearly half

## COc1cc(/C=C/C(=O)CC(=O)/C=C/c2ccc(O)c(OC)c2)ccc1O [curcumin]
[6]
  maximum tolerated dose: ≥ 8000 mg per day

## O=c1c(-c2ccc(O)cc2)coc2cc(O)cc(O)c12 [genistein, 4′5,7-trihydroxyisoflavone]
[7]
  toxicity to normal bladder cells: not exhibit toxicity
[8]
  number of genes with altered expression of more than two fold: 256
[9]; American study, Western diet
  mean plasma/serum genistein: 5.7 nmol/L
[9]; Japanese study
  mean plasma/serum genistein: 248 nmol/L
  plasma/serum genistein, range: 90 to 1204 nmol/L
[9]; with soy supplementation
  excretion half-life: seven
[10]
  increase of the antiproliferative effect of cisplatin: 1.3 fold
[11]
  factor by which survival was reduced: 10000

## Oc1ccc(C=Cc2cc(O)cc(O)c2)cc1 [resveratrol, 3,4′,5-trihydroxystilbene]
[12]
  levels required for cancer chemopreventive effects in cells in vitro: at least 5 μM

## CC(C)[C@@H](CC[C@@H](C)[C@H]1CC[C@H]2[C@@H]3[C@H](O)C[C@H]4C[C@@H](NCCCNCCCCN)CC[C@]4(C)[C@H]3CC[C@]12C)OS(=O)(=O)O [squalamine]
[13]
  plasma concentrations relative to those required for antiangiogenic effects in preclinical studies: at least an order of magnitude higher
  tolerability: well tolerated
[14]
  dose producing inhibition of ocular neovasculation and partial regression of new vessels: 12 mg/m^2
[15]; 300 mg/m^2/day for one or more cycles, response = 50% or greater reduction in tumor size
  objective responses, patients: 36%
[15]; all patients (11 of 36)
  patients with an objective response: Thirty-one
[16]; 400 mg/m^2/day, arthralgia, myalgia, neutropenia
  patients with dose-limiting toxicity: two of three
[16]; continuously daily for 5 days with paclitaxel and carboplatin on day 1
  tolerability: well tolerated
[17]; 384 mg/m^2/day, patients without prior exposure to squalamine
  tolerability: well-tolerated
[17]; continuous intravenous infusion over 120 h, every 14 days, 19 patients
  best-tolerated dose: 192 mg/m^2/day
[18]
  dose that halted proliferation of human vascular endothelial cells: 160 nM
[19]
  tumor growth delay: modest effect
[20]
  number of lung metastases relative to controls: reduced to half; also recorded: reduced by half

## O=c1[nH]c(=O)n(C2CCCO2)cc1F (stereo not drawn) [tegafur alone, tegafur]
[21]
  50% survival time: 92 days

## Cyanocobalamin [vitamin B12]
[22]; in vivo
  amount excreted in the normal urine daily: About 30 mcg
[22]; injected in a large dose up to 100 mcg
  quantity excreted: up to 90%

## angiostatin
[5]
  total vessel number relative to VEGF controls: nearly half
